Source: patent US20070232492A1, “Herbicidal Composition” (Ishihara Sangyo Kaisha, LTD., priority 2004, published 2007)
Read-outs that look alike come from different tables or passages of the source.

Test system: barnyardgrass (Echinochloa oryzicola vasing)
Assay: Growth inhibition of barnyardgrass in paddy soil pots, application under submerged condition, visual rating (observed value) and Colby expected value
Assay type: in vivo
Conditions: for inhibition at 51 g/ha: 0.51 g/a; for inhibition at 7.9 g/ha: 0.079 g/a; for inhibition at 15.8 g/ha: 0.158 g/a; for inhibition at 50 g/ha: 0.5 g/a; for inhibition at 112.5 g/ha: 1.125 g/a; for inhibition at 225 g/ha: 2.25 g/a
Text: When the herbicidal activity in a case where two active ingredients are combined, is larger than the simple sum of the respective herbicidal activities of the two active ingredients (the expected activity), it is called a synergistic effect. The activity expected by the combination of two active ingredients can be calculated as follows (Colby S. R., “Weed”, vol. 15, p. 20-22, 1967). E=p+q−(p×q÷100) where p: growth inhibition rate when treated with x (g/a) of herbicide X,
q: growth inhibition rate when treated with y (g/a) of herbicide Y,
E: growth inhibition rate expected when treated with x (g/a) of herbicide X and y (g/a) of herbicide Y.
Namely, when the actual growth inhibition rate (observed value) is larger than the growth inhibition rate by the above calculation (expected value), the activity by the combination can be regarded as showing a synergistic effect.
Paddy field soil was put into a 1/10,000 are pot, and seeds of barnyardgrass (Echinochloa oryzicola vasing) were sown and left to stand under an irrigated condition with a water depth of 3.5 cm. When barnyardgrass reached 2.0 to 2.5 leaf stage, wettable powders of compound A2 and compound (B1.1) were, respectively, diluted with water and applied under submerged condition so that the active ingredients became the prescribed amounts, respectively. The state of growth was visually observed 21 days after application, and the growth inhibition rate (%) evaluated in accordance with the following evaluation standard (observed value) and the growth inhibition rate (%) calculated by the above-mentioned Colby method (expected value) are shown in Table 1.
Growth inhibition rate (%)=0% (equivalent to the non-treated area) to 100% (complete kill)
(§1) Paddy field soil was put into a 1/10,000 are pot, and seeds of barnyardgrass (Echinochloa oryzicola vasing) were sown and left to stand under an irrigated condition with a water depth of 3.5 cm. When barnyardgrass reached 2.0 to 2.5 leaf stage, wettable powders of compound A2 and compound (B2.1) were, respectively, diluted with water and applied under submerged condition so that the active ingredients became the prescribed amounts, respectively. The state of growth was visually observed 21 days after application, and evaluation and calculation were carried out in the same manner as in the above Test Example 1.
as §1, with “leaf stage, a wettable powder” for “leaf stage, wettable powders”, “a wettable powder of compound” for “stage, wettable powders of compound”, “A2 and an emulsifiable concentrate of compound (B3.1)” for “A2 and compound (B2.1)”, “of compound (B3.1) were, respectively,” for “and compound (B2.1) were, respectively,”
as §1, with “(B4.1)” for “(B2.1)”
Paddy field soil was put into a 1/10,000 are pot, and seeds of barnyardgrass (Echinochloa oryzicola vasing) were sown and left to stand under an irrigated condition with a water depth of 3.5 cm. […]

[1] = Echinochloa oryzicola, soil, 336 h, 2.8 to 3.4 leaf stage, 14 days after application, Test Examples 66-72, read-out: Growth inhibition rate (%) Observed
[2] = Echinochloa oryzicola, soil, 504 h, 2.0 to 2.5 leaf stage, 21 days after application, read-out: Growth inhibition rate (%) Observed
[3] = Echinochloa oryzicola, soil, 504 h, 3.0 to 3.3 leaf stage, 21 days after application, read-out: Growth inhibition rate (%) Observed
[4] = Echinochloa oryzicola, soil, 528 h, 2.5 to 3.0 leaf stage, 22 days after application, read-out: Growth inhibition rate (%) Observed
[5] = Echinochloa oryzicola, soil, 528 h, 2.1 to 3.2 leaf stage, 22 days after application, read-out: Growth inhibition rate (%) Observed

COC(=O)c1ccccc1CS(=O)(=O)NC(=O)Nc1nc(OC)cc(OC)n1 [Compound (B1.1), bensulfuron-methyl]
inhibition at 25.5 g/ha (Echinochloa oryzicola, soil, 336 h, 0.255 g/a, 2.8 to 3.4 leaf stage, 14 days after application, Test Examples 66-72, read-out: Growth inhibition rate (%) Observed): 30%
inhibition at 51 g/ha [1]: 45%
inhibition at 26 g/ha (Echinochloa oryzicola, soil, 504 h, 0.26 g/a, 2.0 to 2.5 leaf stage, 21 days after application, read-out: Growth inhibition rate (%) Observed): 47%
inhibition at 51 g/ha [2]: 57%

CCOC(=O)c1cnn(C)c1S(=O)(=O)NC(=O)Nc1nc(OC)cc(OC)n1 [Compound (B1.3), pyrazosulfuron-ethyl]
inhibition at 7.9 g/ha [3]: 20%
inhibition at 15.8 g/ha [3]: 37%
inhibition at 7.9 g/ha [4]: 50%
inhibition at 15.8 g/ha [4]: 70%

COc1cc(OC)nc(NC(=O)NS(=O)(=O)c2c(Cl)nc3ccccn23)n1 [Compound (B1.4), imazosulfuron]
inhibition at 45 g/ha (Echinochloa oryzicola, soil, 336 h, 0.45 g/a, 2.8 to 3.4 leaf stage, 14 days after application, Test Examples 66-72, read-out: Growth inhibition rate (%) Observed): 25%
inhibition at 90 g/ha (Echinochloa oryzicola, soil, 336 h, 0.9 g/a, 2.8 to 3.4 leaf stage, 14 days after application, Test Examples 66-72, read-out: Growth inhibition rate (%) Observed): 40%
inhibition at 33.8 g/ha (Echinochloa oryzicola, soil, 528 h, 0.338 g/a, 2.5 to 3.0 leaf stage, 22 days after application, read-out: Growth inhibition rate (%) Observed): 53%
inhibition at 67.5 g/ha (Echinochloa oryzicola, soil, 528 h, 0.675 g/a, 2.5 to 3.0 leaf stage, 22 days after application, read-out: Growth inhibition rate (%) Observed): 57%

CCOc1ccccc1OS(=O)(=O)NC(=O)Nc1nc(OC)cc(OC)n1 [Compound (B1.5), ethoxysulfuron]
inhibition at 10.5 g/ha (Echinochloa oryzicola, soil, 336 h, 0.105 g/a, 2.8 to 3.4 leaf stage, 14 days after application, Test Examples 66-72, read-out: Growth inhibition rate (%) Observed): 10%
inhibition at 21 g/ha (Echinochloa oryzicola, soil, 336 h, 0.21 g/a, 2.8 to 3.4 leaf stage, 14 days after application, Test Examples 66-72, read-out: Growth inhibition rate (%) Observed): 20%
inhibition at 7.9 g/ha [4]: 0%
inhibition at 15.8 g/ha [4]: 3%

COC(=O)c1c(Cl)nn(C)c1S(=O)(=O)NC(=O)Nc1nc(OC)cc(OC)n1 [Compound (B1.6), halosulfuron-methyl]
inhibition at 30 g/ha (Echinochloa oryzicola, soil, 456 h, read-out: Growth inhibition rate (%) Observed, 0.3 g/a, 2.8 to 3.2 leaf stage, 19 days after application, Test Examples 62-65): 25%
inhibition at 60 g/ha (Echinochloa oryzicola, soil, 456 h, read-out: Growth inhibition rate (%) Observed, 0.6 g/a, 2.8 to 3.2 leaf stage, 19 days after application, Test Examples 62-65): 40%

CO/N=C(\C)c1cccc(Oc2nc(OC)cc(OC)n2)c1C(=O)OC [Compound (B2.1), pyriminobac-methyl]
inhibition at 90 g/ha (Echinochloa oryzicola, soil, 336 h, read-out: Growth inhibition rate (%) Observed, 0.9 g/a, 2.8 to 3.4 leaf stage, 14 days after application, Test Examples 66-72): 60%
inhibition at 22.5 g/ha (Echinochloa oryzicola, soil, 504 h, read-out: Growth inhibition rate (%) Observed, 0.225 g/a, 2.0 to 2.5 leaf stage, 21 days after application): 60%
inhibition at 45 g/ha (Echinochloa oryzicola, soil, 504 h, read-out: Growth inhibition rate (%) Observed, 0.45 g/a, 2.0 to 2.5 leaf stage, 21 days after application): 80%

COCc1cccc(C(O)c2nc(OC)cc(OC)n2)c1NS(=O)(=O)C(F)F (stereo not drawn) [Compound (B2.2), KUH-021]
Growth inhibition rate (%) Observed (0.25 g/a, 2.8 to 3.2 leaf stage, 21 days after application, Test Examples 39-43): 60%
Growth inhibition rate (%) Observed (0.335 g/a, 2.8 to 3.2 leaf stage, 21 days after application, Test Examples 39-43): 68%

CS(=O)(=O)c1ccc(C(=O)C2C(=O)CCCC2=O)c([N+](=O)[O-])c1 [Compound (B4.2), mesotrione]
inhibition at 25 g/ha (Echinochloa oryzicola, soil, 336 h, 0.25 g/a, 2.8 to 3.4 leaf stage, 14 days after application, Test Examples 66-72, read-out: Growth inhibition rate (%) Observed): 0%
inhibition at 50 g/ha [1]: 0%
inhibition at 25 g/ha (Echinochloa oryzicola, soil, 504 h, 0.25 g/a, 2.0 to 2.5 leaf stage, 21 days after application, read-out: Growth inhibition rate (%) Observed): 0%
inhibition at 50 g/ha [2]: 0%

Cc1nn(C)c(OCC(=O)c2ccccc2)c1C(=O)c1ccc(Cl)cc1Cl [Compound (B4.3), pyrazoxyfen]
Growth inhibition rate (%) Observed (5.63 g/a, 2.5 to 3.0 leaf stage, 22 days after application): 0%
Growth inhibition rate (%) Observed (11.25 g/a, 2.5 to 3.0 leaf stage, 22 days after application): 10%

CS(=O)(=O)c1ccc(C(=O)C2C(=O)CCCC2=O)c(Cl)c1COCC1CCCO1 (stereo not drawn) [Compound (B4.4), AVH-301]
inhibition at 112.5 g/ha [1]: 0%
inhibition at 225 g/ha [1]: 0%
inhibition at 112.5 g/ha [5]: 13%
inhibition at 225 g/ha [5]: 13%

Cc1ccc(S(=O)(=O)Oc2c(C(=O)c3ccc(Cl)cc3Cl)c(C)nn2C)cc1 [Compound (B4.5), pyrazolynate]
inhibition at 500 g/ha (Echinochloa oryzicola, soil, 456 h, 5 g/a, 2.8 to 3.2 leaf stage, 19 days after application, Test Examples 62-65, read-out: Growth inhibition rate (%) Observed): 0%
inhibition at 1000 g/ha (Echinochloa oryzicola, soil, 456 h, 10 g/a, 2.8 to 3.2 leaf stage, 19 days after application, Test Examples 62-65, read-out: Growth inhibition rate (%) Observed): 0%

Cc1ccc(C(=O)COc2c(C(=O)c3ccc(Cl)c(C)c3Cl)c(C)nn2C)cc1 [Compound (B4.6), benzofenap]
Growth inhibition rate (%) Observed (5 g/a, 2.8 to 3.2 leaf stage, 19 days after application, Test Examples 62-65): 0%
Growth inhibition rate (%) Observed (10 g/a, 2.8 to 3.2 leaf stage, 19 days after application, Test Examples 62-65): 0%

CC(C)(NC(=O)NCc1ccccc1Cl)c1ccccc1 [Compound (B6.2), cumyluron]
inhibition at 750 g/ha (Echinochloa oryzicola, soil, 504 h, 7.5 g/a, 2.0 to 2.5 leaf stage, 21 days after application, read-out: Growth inhibition rate (%) Observed): 3%
inhibition at 1500 g/ha (Echinochloa oryzicola, soil, 504 h, 15 g/a, 2.0 to 2.5 leaf stage, 21 days after application, read-out: Growth inhibition rate (%) Observed): 3%
